Earlier results on two compounds are cited in patent US20230390221A1, “PHARMACEUTICAL COMPOSITIONS WITH LOW AMOUNTS OF NITROSAMINE IMPURITIES AND METHODS FOR PRODUCING THE SAME” (Zentiva K.S., priority 2020, published 2023).

The structures appear in SMILES notation.

For this series the following is noted: limit set by EMA or FDA.

Regarding `CCN(CC)N=O` [NDEA, N-nitrosodiethylamine], the acceptable daily limits was 26.5 ng/day.
Regarding `CN(C)N=O` [NDMA, N-nitrosodimethylamine], the acceptable daily limits is listed as 96 ng/day.
